Test results: EP0315434A2, “Pyridoxal hydrazone derivatives their production and use and pharmaceutical compositions containing the same” (YISSUM RESEARCH DEVELOPMENT COMPANY OF THE HEBREW …, priority 1987, dated 1989)

Tests used:
[1] = Mobilization of iron from hepatic parenchymal stores in hypertransfused rats labelled with ⁵⁹Fe-ferritin; assay type: in vivo; conditions: for Ferritin-⁵⁹Fe distribution in % Blood / Ferritin-⁵⁹Fe distribution in % Feces / Ferritin-⁵⁹Fe distribution in % Liver / Ferritin-⁵⁹Fe distribution in % Residual / Ferritin-⁵⁹Fe distribution in % Spleen / Ferritin-⁵⁹Fe distribution in % Urine: hypertransfused rats, 40 mg per animal, single subcutaneous injection
Description: In each case, 40 mg of each compound was administered per animal in a single subcutaneous injection.
In vivo studies of chelating efficiency were performed in two models: (a) normal rats injected i.p. with 10 mg of either desferrioxamine B (DF), PIH of the prior art, PPH of Example 4 or PPHE from Example 5 labelled in vitro with ⁵⁹Fe; and (b) hypertransfused rats receiving twice 4 ml/100gm packed RBC intravenously 5 and 3 days prior to study (hematocrit 68%) and labelled with ⁵⁹Fe-ferritin injected i.v. 24h prior to iron chelating therapy as described previously. Drugs to be tested in the ⁵⁹Fe-ferritin model were given either by i.p. injection or by gastric tube at a dose of 40 mg per animal. Radioiron excretion and organ distribution were determined after 4 days
The radioactivity of spleen, weighed portions of the liver, and 1 ml samples of blood were determined in an automatic well type scintillation counter (Packard Autogamma Model 5360 Scintillation spectrometer). Spleen and kidney were counted as whole organs.
Whole body counts were performed in a small animal counter (Packard Model 446 Armac) scintillation detector. The excretion of radioiron following ⁵⁹Fe labelling was measured in animals confined to solitary metabolic cages with stainless steel grid bottoms, and stool and urine were collected separately.

[2] = biological target: T1, Ribonucleoside Diphosphate Reductase (RdR) (Homo sapiens, UniProt P31350); assay: Inhibition of ribonucleotide diphosphate reductase; assay type: biochemical
T1 sequence (P31350 1-389): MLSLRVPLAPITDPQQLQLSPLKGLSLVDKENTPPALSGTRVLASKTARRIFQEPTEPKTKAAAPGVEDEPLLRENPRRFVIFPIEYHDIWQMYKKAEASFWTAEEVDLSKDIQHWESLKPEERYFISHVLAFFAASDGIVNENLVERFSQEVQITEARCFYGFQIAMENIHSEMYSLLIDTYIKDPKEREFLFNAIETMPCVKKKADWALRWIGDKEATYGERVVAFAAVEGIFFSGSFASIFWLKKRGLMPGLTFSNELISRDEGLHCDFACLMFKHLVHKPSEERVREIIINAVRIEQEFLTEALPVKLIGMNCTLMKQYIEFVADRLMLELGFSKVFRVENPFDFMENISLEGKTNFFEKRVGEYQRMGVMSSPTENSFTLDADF

[3] = system: chloroquine-resistant strain of P. falciparum (FCR-3); conditions: molar concentration 2 x 10⁻⁶; cultured 3 days
Description: Cultures of a chloroquine-resistant strain of P. falciparum (FCR-3), cultivated in human erythrocytes (a technique widely used at the Kuvin Centre, Hebrew University Hadassah Medical School), were suspended in solutions containing chelators and then cultured for 3 days. Growth of parasites was determined by either slide counts or by incorporation of ³H-hypoxanthine. The parasite growth was monitored by microscopic slide counts. […]

[4] = Fate of ⁵⁹Fe tracer incubated with chelator and injected into normal rats (radioiron distribution and excretion); assay type: in vivo; conditions: for Radioiron Distribution in % Feces / Radioiron Distribution in % Total excretion / Radioiron Distribution in % Urine / Radioiron Distribution in % Blood / Radioiron Distribution in % Liver / Radioiron Distribution in % Spleen: 10 mg chelator with ⁵⁹Fe, subcutaneous, normal rats; for Radioiron Distribution in % Feces / Radioiron Distribution in % Total excretion / Radioiron Distribution in % Urine: cumulative within 4 days; for Radioiron Distribution in % Blood / Radioiron Distribution in % Liver / Radioiron Distribution in % Spleen: within 4 days; for TOTAL EXCRETION OF RADIO-IRON IN RATS %: as in Table 1
Description: Table 1 describes the fate of ⁵⁹Fe tracer reincubated […] with 10 mg of some of the above iron chelators and then injected subcutaneously to groups of 4 normal rats. Numbers represent mean cumulative radioiron excretion within 4 days of injection. For comparison, spontaneous excretion of radioiron and the excretion of desferrioxamine (DF) bound radioiron are also given. […]
Spleen and kidney were counted as whole organs.
The excretion of radioiron following ⁵⁹Fe labelling was measured in animals confined to solitary metabolic cages with stainless steel grid bottoms, and stool and urine were collected separately.

[5] = system: Leukemia P 388; assay: Leukemia P 388 survival in mice; assay type: in vivo, Mice: female B6D2F1; conditions: days 1, 2, 3, 4
[6] = system: Lewis lung carcinoma; assay: Inhibition of Lewis lung carcinoma (primary tumor and metastases); assay type: in vivo; conditions: dose 25 mg/kg
Source text: It becomes possible also to look at the ability of one of the compounds (Ex. 1) to inhibit the growth of Lewis lung carcinoma. With a view to possible mechanisms we employed the well-established anti-cancer antibiotics (a) bleomycin, and (b) daunorubicin, as reference compounds.

[7] = Iron chelation in H₂O (spectrophotometric, apparent K), ferrous ions; assay type: physicochemical; conditions: ferrous versus ferric

## 1-[N-ethoxycarbonylmethyl pyridoxylidenium] 2-[2′-pyridyl] hydrazine bromide [Ex. 3]
[1]
  Ferritin-⁵⁹Fe distribution in % Blood: 3.8±0.2%
  Ferritin-⁵⁹Fe distribution in % Feces: 57.6±2.9%
  Ferritin-⁵⁹Fe distribution in % Liver: 36.5±1.2%
  Ferritin-⁵⁹Fe distribution in % Residual: 0%
  Ferritin-⁵⁹Fe distribution in % Spleen: 0.4±0.1%
  Ferritin-⁵⁹Fe distribution in % Urine: 1.7±0.1%
[1]; oral 40 mg versus parenteral
  efficiency as compared to the parenteral administration of the same drug: 31%
[1]; rat, in vivo
  effectiveness relative to DF on a weight per weight basis: 3 times
[2]; dose 10 x 10⁻⁵ M
  Inhibition of Ribonucleoside Diphosphate Reductase (RdR) %: none
[3]
  INHIBITION OF GROWTH OF DRUG-RESISTANT STRAIN OF P. falciparum % INHIBITION: 90.9%
[4]
  Radioiron Distribution in % Feces: 57.2±1.1%
  Radioiron Distribution in % Total excretion: 86.7±1.7%
  Radioiron Distribution in % Urine: 29.5±0.6%
  Radioiron Distribution in % Blood: 6.4±0.4%
  Radioiron Distribution in % Liver: 3.3±0.4%
  Radioiron Distribution in % Spleen: 0.16±0.04%
  TOTAL EXCRETION OF RADIO-IRON IN RATS %: 86.7± 1.7%

## 1-[N-methylpyridoxylidenium]-2-[methyl pyridiniumn] hydrazine hydroxido iodide [Ex. 2]
[1]
  Ferritin-⁵⁹Fe distribution in % Blood: 3.0±0.1%
  Ferritin-⁵⁹Fe distribution in % Feces: 58.9±3.0%
  Ferritin-⁵⁹Fe distribution in % Liver: 35.5±1.7%
  Ferritin-⁵⁹Fe distribution in % Residual: 0%
  Ferritin-⁵⁹Fe distribution in % Spleen: 0.4±0.1%
  Ferritin-⁵⁹Fe distribution in % Urine: 2.2±0.1%
[4]
  Radioiron Distribution in % Feces: 27.0±2.2%
  Radioiron Distribution in % Total excretion: 66.0±5.3%
  Radioiron Distribution in % Urine: 39.0±3.1%
  Radioiron Distribution in % Blood: 13.3±2.3%
  Radioiron Distribution in % Liver: 6.8±0.4%
  Radioiron Distribution in % Spleen: 0.51±0.02%

## Cc1c(O)c(C=NNC(=O)c2cc[n+](C)cc2)c(CO)c[n+]1C.[I-].[I-] [Comparative Compound B, 1-[N-methylpyridoxylidenium]-2-[N′-isonicotinoylium] hydrazine dimethiodide, reference compound]
[4]
  Radioiron Distribution in % Feces: 8.6±0.3%
  Radioiron Distribution in % Total excretion: 39.2±1.6%
  Radioiron Distribution in % Urine: 30.6±1.12%
  Radioiron Distribution in % Blood: 25.1±2.2%
  Radioiron Distribution in % Liver: 8.2±0.8%
  Radioiron Distribution in % Spleen: 0.36±0.03%

## COc1cccc2c1C(=O)c1c(O)c3c(c(O)c1C2=O)C[C@@](O)(C(C)=O)C[C@@H]3O[C@H]1C[C@H](N)[C@H](O)[C@H](C)O1 [Daunorubicin, daunorubicin, reference compound]
[5]; 1 mg/kg i.p.
  Survivors on Day 20: 0/10
[5]; 1 mg/kg i.p., mean survival time treated / controls
  Activity T/C x 100: 154

## Cc1ncc(CO)c(C=NNc2ccccn2)c1O [Ex. 1]
[5]; 25 mg/kg i.p.
  Activity T/C x 100: 105
  Bodyweights Day 7-Day (g): +2.6 g
  Survivors on Day 20: 0/5
[5]; 37.5 mg/kg i.p.
  Activity T/C x 100: 110
  Bodyweights Day 7-Day (g): +0.2 g
  Survivors on Day 20: 0/5
[5]; 50 mg/kg i.p.
  Bodyweights Day 7-Day (g): +0.8 g
  Survivors on Day 20: 0/5
[5]; 50 mg/kg i.p., P<0.05 (Mann-Whitney Test)
  Activity T/C x 100: 126(xxx)
[5]; 75 mg/kg i.p.
  Activity T/C x 100: Toxic^(xx)
  Bodyweights Day 7-Day: -0.6 g
  Survivors on Day 20: 0/5
[2]; dose 6.7 x 10⁻⁵ M (20 µg/ml)
  Inhibition of Ribonucleoside Diphosphate Reductase (RdR) %: 72%
[3]
  INHIBITION OF GROWTH OF DRUG-RESISTANT STRAIN OF P. falciparum % INHIBITION: 93.4%
[4]
  TOTAL EXCRETION OF RADIO-IRON IN RATS %: 34.2%
[6]
  Inhibition of Lewis Carcinoma Metastases %: 41%
  Inhibition of Lewis Carcinoma Primary Tumor %: 0%

## Cc1ncc(CO)c(C=NNc2ncccn2)c1O [Ex. 4]
[2]; dose 1 x 10⁻⁵ M
  Inhibition of Ribonucleoside Diphosphate Reductase (RdR) %: 30%
[2]; dose 10 x 10⁻⁵ M
  Inhibition of Ribonucleoside Diphosphate Reductase (RdR) %: 40%
[2]; dose 100 x 10⁻⁵ M
  Inhibition of Ribonucleoside Diphosphate Reductase (RdR) %: 78%
[7]
  higher affinity for ferrous than for ferric ions: ~30 fold
